Test results as given in EP2951180B1, “2,6,7,8 SUBSTITUTED PURINES AS HDM2 INHIBITORS” (Merck Sharp & Dohme Corp., priority 2013, dated 2014).

These compounds were tested against T1, HDM2 (Homo sapiens, UniProt Q00987) (assay: FRET assay (HDM2 inhibition; method not described in this part)). Conditions: Table 2.
T1 construct: Thioredoxin (N); made in house; host or cells: E. coli strain BL21(DE3)Rosetta
Type: binding

T1 sequence (Q00987 17-125): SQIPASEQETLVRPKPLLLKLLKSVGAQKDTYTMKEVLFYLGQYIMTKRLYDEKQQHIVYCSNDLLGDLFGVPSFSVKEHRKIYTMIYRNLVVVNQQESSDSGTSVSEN

Row | Compound | IC50 [nM]
1 | C[C@@H](Nc1nc(C(=O)O)nc2nc(-c3cnc(N(C)C)nc3)n(Cc3ccc(C(F)(F)F)cc3)c12)C1CC1 [Example 2.70, 6-{[(1R)-1-cyclopropylethyl]amino}-8-[2-(dimethylamino)pyrimidin-5-yl]-7-[4-(trifluoromethyl)benzyl]-7H-purine-2-carboxylic acid] | 1020
2 | COc1cc(-c2nc3nc(C(=O)O)nc(N[C@H](C)C4CC4)c3n2Cc2ccc(C(F)(F)F)cc2)ccn1 [Example 2.71, 6-{[(1R)-1-cyclopropylethyl]amino}-8-(2-methoxypyridin-4-yl)-7-[4-(trifluoromethyl)benzyl]-7H-purine-2-carboxylic acid] | 589
3 | CCOc1ccc(-c2nc3nc(C(=O)O)nc(N[C@H](C)C4CC4)c3n2Cc2ccc(C(F)(F)F)cc2)cn1 [Example 2.72, 6-{[(1R)-1-cyclopropylethyl]amino}-8-(6-ethoxypyridin-3-yl)-7-[4-(trifluoromethyl)benzyl]-7H-purine-2-carboxylic acid] | 613
4 | C[C@@H](Nc1nc(C(=O)O)nc2nc(-c3cccc(F)c3F)n(Cc3ccc(C(F)(F)F)cc3)c12)C1CC1 [Example 2.73, 6-{[(1R)-1-cyclopropylethyl]amino}-8-(2,3-difluorophenyl)-7-[4-(trifluoromethyl)benzyl]-7H-purine-2-carboxylic acid] | 111
5 | C[C@@H](Nc1nc(C(=O)O)nc2nc(-c3ccc4c(c3)CCC4)n(Cc3ccc(C(F)(F)F)cc3)c12)C1CC1 [Example 2.74, 6-{[(1R)-1-cyclopropylethyl]amino}-8-(2,3-dihydro-1H-inden-5-yl)-7-[4-(trifluoromethyl)benzyl]-7H-purine-2-carboxylic acid] | 205
6 | C[C@@H](Nc1nc(C(=O)O)nc2nc(-c3ccc(Br)cc3F)n(Cc3ccc(C(F)(F)F)cc3)c12)C1CC1 [Example 2.75, 8-(4-bromo-2-fluorophenyl)-6-{[(1R)-1-cyclopropylethyl]amino}-7-[4-(trifluoromethyl)benzyl]-7H-purine-2-carboxylic acid] | 204
7 | C[C@@H](Nc1nc(C(=O)O)nc2nc(-c3ccc(Cl)c(Cl)c3)n(Cc3ccc(C(F)(F)F)cc3)c12)C1CCC1 [Example 2.76, 6-{[(1R)-1-cyclobutylethyl]amino}-8-(3,4-dichlorophenyl)-7-[4-(trifluoromethyl)benzyl]-7H-purine-2-carboxylic acid] | 20.4
8 | C[C@@H](Nc1nc(C(=O)O)nc2nc(-c3ccncc3)n(Cc3ccc(C(F)(F)F)cc3)c12)C1CCC1 [Example 2.77, 6-{[(1R)-1-cyclobutylethyl]amino}-8-pyridin-4-yl-7-[4-(trifluoromethyl)benzyl]-7H-purine-2-carboxylic acid] | 72.6
9 | C[C@@H](Nc1nc(C(=O)O)nc2nc(-c3ccccc3C(N)=O)n(Cc3ccc(C(F)(F)F)cc3)c12)C1CC1 [Example 2.78, 8-(2-carbamoylphenyl)-6-{[(1R)-1-cyclopropylethyl]amino}-7-[4-(trifluoromethyl)benzyl]-7H-purine-2-carboxylic acid] | 219
10 | C[C@@H](Nc1nc(C(=O)O)nc2nc(-c3ccccc3C(F)(F)F)n(Cc3ccc(C(F)(F)F)cc3)c12)C1CCC1 [Example 2.79, 6-{[(1R)-1-cyclobutylethyl]amino}-7-[4-(trifluoromethyl)benzyl]-8-[2-(trifluoromethyl)phenyl]-7H-purine-2-carboxylic acid] | 13.4
11 | CCc1ccc(OC)cc1-c1nc2nc(C(=O)O)nc(N[C@H](C)C3CCC3)c2n1Cc1ccc(C(F)(F)F)cc1 [Example 2.80, 6-{[(1R)-1-cyclobutylethyl]amino} -8-(2-ethyl-5-methoxyphenyl)-7-[4-(trifluoromethyl)benzyl]-7H-purine-2-carboxylic acid] | 11.1
12 | CCc1ccccc1-c1nc2nc(C(=O)O)nc(N[C@H](C)C3CCC3)c2n1Cc1ccc(C(F)(F)F)cc1 [Example 2.81, 6-{[(1R)-1-cyclobutylethyl]amino} -8-(2-ethylphenyl)-7-[4-(trifluoromethyl)benzyl] - 7H-purine-2-carboxylic acid] | 18
13 | CCc1ccc(C)cc1-c1nc2nc(C(=O)O)nc(N[C@H](C)C3CCC3)c2n1Cc1ccc(C(F)(F)F)cc1 [Example 2.82, 6-{[(1R)-1-cyclobutylethyl]amino}-8-(2-ethyl-5-methylphenyl)-7-[4-(trifluoromethyl)benzyl]-7H-purine-2-carboxylic acid] | 13.6
14 | C[C@@H](Nc1nc(C(=O)O)nc2nc(-c3cnn(C)c3)n(Cc3ccc(C(F)(F)F)cc3)c12)C1CCC1 [Example 2.83, 6-{[(1R)-1-cyclobutylethyl]amino} -8-(1-methyl-1H-pyrazol-4-yl)-7-[4-(trifluoromethyl)benzyl] - 7H-purine-2-carboxylic acid] | 189
15 | Cc1noc(C)c1-c1nc2nc(C(=O)O)nc(N[C@H](C)C3CCC3)c2n1Cc1ccc(C(F)(F)F)cc1 [Example 2.84, 6-{[(1R)-1-cyclobutylethyl]amino} -8-(3,5-dimethylisoxazol-4-yl)-7-[4-(trifluoromethyl)benzyl] - 7H-purine-2-carboxylic acid] | 79.4

Same assay, conditions: Table 3

Row | Compound | IC50 [nM]
16 | C[C@@H](Nc1nc(C(=O)O)nc2nc(-c3nccn3C)n(Cc3ccc(C(F)(F)F)cc3)c12)C1CCC1 [Example 3.1, (R)-6-((1-cyclobutylethyl)amino)-8-(1-methyl-1H-imidazol-2-yl)-7-(4-(trifluoromethyl)benzyl)-7H-purine-2-carboxylic acid] | 161
17 | CC(C)c1ccnc(-c2nc3nc(C(=O)O)nc(N[C@H](C)C4CCC4)c3n2Cc2ccc(C(F)(F)F)cc2)n1 [Example 3.2, (R)-6-((1-cyclobutylethyl)amino)-8-(4-isopropylpyrimidin-2-yl)-7-(4-(trifluoromethyl)benzyl)-7H-purine-2-carboxylic acid] | 22
18 | CC(C)c1cnc(-c2nc3nc(C(=O)O)nc(N[C@H](C)C4CCC4)c3n2Cc2ccc(C(F)(F)F)cc2)s1 [Example 3.3, (R)-6-((1-cyclobutylethyl)amino)-8-(5-isopropylthiazol-2-yl)-7-(4-(trifluoromethyl)benzyl)-7H-purine-2-carboxylic acid] | 57.9
19 | C[C@@H](Nc1nc(C(=O)O)nc2nc(-c3ncccn3)n(Cc3ccc(C(F)(F)F)cc3)c12)C1CCC1 [Example 3.4, 6-{[(1R)-1-cyclobutylethyl]amino}-8-pyrimidin-2-yl-7-[4-(trifluoromethyl)benzyl] -7H-purine-2-carboxylic acid] | 69.8
20 | C[C@@H](Nc1nc(C(=O)O)nc2nc(-c3ncco3)n(Cc3ccc(C(F)(F)F)cc3)c12)C1CCC1 [Example 3.5, 6-{[(1R)-1-cyclobutylethyl]amino}-8-(1,3-oxazol-2-yl)-7-[4-(trifluoromethyl)benzyl] -7H-purine-2-carboxylic acid] | 30
21 | CC(C)c1csc(-c2nc3nc(C(=O)O)nc(N[C@H](C)C4CCC4)c3n2Cc2ccc(C(F)(F)F)cc2)n1 [Example 3.6, 6-{[(1R)-1-cyclobutylethyl]amino}-8-[4-(1-methylethyl)-1,3-thiazol-2-yl]-7-[4-(trifluoromethyl)benzyl] -7H-purine-2-carboxylic acid] | 312
22 | Cc1cnc(-c2nc3nc(C(=O)O)nc(N[C@H](C)C4CCC4)c3n2Cc2ccc(C(F)(F)F)cc2)s1 [Example 3.7, 6-{[(1R)-1-cyclobutylethyl]amino}-8-(5-methyl-1,3-thiazol-2-yl)-7-[4-(trifluoromethyl)benzyl] -7H-purine-2-carboxylic acid] | 42
23 | C[C@@H](Nc1nc(C(=O)O)nc2nc(-c3nccs3)n(Cc3ccc(Cl)cc3)c12)C1CC1 [Example 3.8, 7-(4-chlorobenzyl)-6-{[(1R)-1-cyclopropylethyl]amino}-8-(1,3-thiazol-2-yl)-7H-purine-2-carboxylic acid] | 98.8
24 | C[C@@H](Nc1nc(C(=O)O)nc2nc(-c3nccs3)n(Cc3ccc(C(F)(F)F)cc3)c12)C1CCC1 [Example 3.9, 6-{[(1R)-1-cyclobutylethyl]amino}-8-(1,3-thiazol-2-yl)-7-[4-(trifluoromethyl)benzyl] -7H-purine-2-carboxylic acid] | 7.86

Same assay, conditions: Table 4

Row | Compound | IC50 [nM]
25 | CCOc1ccc(C)cc1-c1nc2nc(C(=O)O)nc(N[C@H](C)C3CCC3)c2n1Cc1ccc(Cl)cc1 [Example 4.1, (R)-7-(4-chlorobenzyl)-6-((1-cyclobutylethyl)amino)-8-(2-ethoxy-5-methylphenyl)-7H-purine-2-carboxylic acid] | 32
26 | Cc1ccc(C)c(-c2nc3nc(C(=O)O)nc(N[C@H](C)C4CCC4)c3n2Cc2ccc(Cl)cc2)c1 [Example 4.2, (R)-7-(4-chlorobenzyl)-6-((1-cyclobutylethyl)amino)-8-(2,5-dimethylphenyl)-7H-purine-2-carboxylic acid] | 40.4
27 | C=CCCOc1ccc(C)cc1-c1nc2nc(C(=O)O)nc(N[C@H](C)C3CC3)c2n1Cc1ccc(Cl)cc1 [Example 4.3, (R)-8-(2-(but-3-en-1-yloxy)-5-methylphenyl)-7-(4-chlorobenzyl)-6-((1-cyclopropylethyl)amino)-7H-purine-2-carboxylic acid] | 104
28 | COCCCOc1ccc(C)cc1-c1nc2nc(C(=O)O)nc(N[C@H](C)C3CCC3)c2n1Cc1ccc(Cl)cc1 [Example 4.4, (R)-7-(4-chlorobenzyl)-6-((1-cyclobutylethyl)amino)-8-(2-(3-methoxypropoxy)-5-methylphenyl)-7H-purine-2-carboxylic acid] | 48.7
29 | COCCCOc1ccc(C)cc1-c1nc2nc(C(=O)O)nc(N[C@H](C)C3CC3)c2n1Cc1ccc(Cl)cc1 [Example 4.5, (R)-7-(4-chlorobenzyl)-6-((1-cyclopropylethyl)amino)-8-(2-(3-methoxypropoxy)-5-methylphenyl)-7H-purine-2-carboxylic acid] | 162
30 | Cc1ccc(OCCCO)c(-c2nc3nc(C(=O)O)nc(N[C@H](C)C4CCC4)c3n2Cc2ccc(Cl)cc2)c1 [Example 4.6, (R)-7-(4-chlorobenzyl)-6-((1-cyclobutylethyl)amino)-8-(2-(3-hydroxypropoxy)-5-methylphenyl)-7H-purine-2-carboxylic acid] | 33.7
31 | CCOc1ccc(C)cc1-c1nc2nc(C(=O)O)nc(N[C@H](C)C3CC3)c2n1Cc1ccc(Cl)cc1 [Example 4.7, (R)-7-(4-chlorobenzyl)-6-((1-cyclopropylethyl)amino)-8-(2-ethoxy-5-methylphenyl)-7H-purine-2-carboxylic acid] | 123
